From ChEMBL document CHEMBL6103618, “Discovery of Novel Oxazolo[4,3-f]purine Derivatives as Antitumor Agents through PPIA Interaction” (J Med Chem, 2025)
pIC50: −log10 of the molar value.

Assays:
Type in all cases: functional, cell-based
HCT-116 = experiment: Antiproliferative activity against human HCT-116 cells assessed as inhibition of cell viability incubated for 48 hrs by CCK8 assay; conditions: HCT-116, 48 h
HeLa = experiment: Antiproliferative activity against human HeLa cells assessed as inhibition of cell viability incubated for 48 hrs by CCK8 assay
MCF7 = experiment: Antiproliferative activity against human MCF7 cells assessed as inhibition of cell viability incubated for 48 hrs by CCK8 assay; conditions: MCF7, 48 h
PANC-1 = experiment: Antiproliferative activity against human PANC-1 cells assessed as inhibition of cell viability incubated for 48 hrs by CCK8 assay; conditions: PANC-1, 48 h
SW480 = experiment: Antiproliferative activity against human SW480 cells assessed as inhibition of cell viability incubated for 48 hrs by CCK8 assay; conditions: SW480, 48 h
CT26 = experiment: Antiproliferative activity against mouse CT26 cells assessed as inhibition of cell viability incubated for 48 hrs by CCK8 assay; conditions: CT26, 48 h
HepG2 = experiment: Antiproliferative activity against human HepG2 cells assessed as inhibition of cell viability incubated for 48 hrs by CCK8 assay; conditions: HepG2, 48 h

| Compound | pIC50 (HCT-116) | pIC50 (HeLa) | also measured |
| --- | --- | --- | --- |
| CCOC(=O)/C=C\N1c2nc(Cl)nc(Cl)c2N2C(c3ccccc3)OC(C(=O)OCC)(C(=O)OCC)C12 (configuration not stated) | < 4.30 | < 4.30 |  |
| C=C(C(=O)OC)N1c2nc(Cl)nc(Cl)c2N2[C@@H](c3ccccc3F)OC(C(=O)OCC)(C(=O)OCC)[C@H]12 | 6.62 | 6.13 |  |
| C=C(C(=O)OC)N1c2nc(Cl)nc(Cl)c2N2[C@H](c3ccccc3F)OC(C(=O)OCC)(C(=O)OCC)[C@@H]12 | 6.19 | 6.33 |  |
| CCOC(=O)/C=C/N1c2nc(Cl)nc(Cl)c2N2C(c3cccc([N+](=O)[O-])c3)OC(C(=O)OCC)(C(=O)OCC)C12 (racemic) | 5.36 | 5.19 |  |
| CCOC(=O)/C=C/N1c2nc(Cl)nc(Cl)c2N2C(c3ccc(I)cc3)OC(C(=O)OCC)(C(=O)OCC)C12 (racemic) | 4.80 | < 4.30 |  |
| CCOC(=O)/C=C/N1c2nc(Cl)nc(Cl)c2N2C(c3ccccc3I)OC(C(=O)OCC)(C(=O)OCC)C12 (racemic) | 5.43 | 4.99 |  |
| CCOC(=O)/C=C/N1c2nc(Cl)nc(Cl)c2N2C(c3cccc(Br)c3)OC(C(=O)OCC)(C(=O)OCC)C12 (racemic) | 5.10 | 4.93 |  |
| CCOC(=O)/C=C/N1c2nc(Cl)nc(Cl)c2N2C(c3ccccc3)OC(C(=O)OCC)C12 (racemic) | 4.93 | 5.18 |  |
| CCOC(=O)C1(C(=O)OCC)OC(c2ccccc2)N2c3c(Cl)nc(Cl)nc3N(/C=C/C(=O)OC(C)(C)C)C21 (racemic) | < 4.30 | < 4.30 |  |
| CCOC(=O)/C=C/N1c2nc(Cl)nc(Cl)c2N2C(c3cc(OC)c(OC)c(OC)c3)OC(C(=O)OCC)(C(=O)OCC)C12 (racemic) | 4.85 | < 4.30 |  |
| CCOC(=O)/C=C/N1c2nc(Cl)nc(Cl)c2N2C(c3ccc(Cl)c(Cl)c3)OC(C(=O)OCC)(C(=O)OCC)C12 (racemic) | 4.96 | 4.79 |  |
| CCOC(=O)/C=C/N1c2nc(Cl)nc(Cl)c2N2C(c3ccc(C)cc3)OC(C(=O)OCC)(C(=O)OCC)C12 (racemic) | 4.68 | 4.36 |  |
| CCCSc1nc(Cl)nc2c1N1C(c3ccccc3)OC(C(=O)OCC)(C(=O)OCC)C1N2/C=C/C(=O)OCC (racemic) | < 4.30 | < 4.30 |  |
| CCOC(=O)/C=C/N1c2nc(Cl)nc(Cl)c2N2C(c3cccc4ccccc34)OC(C(=O)OCC)(C(=O)OCC)C12 (racemic) | < 4.30 | < 4.30 |  |
| CCOC(=O)/C=C/N1c2nc(Cl)nc(Cl)c2N2C(c3cccc(OC)c3)OC(C(=O)OCC)(C(=O)OCC)C12 (racemic) | 4.68 | 4.34 |  |
| C=C(C(=O)OCC)N1c2nc(Cl)nc(Cl)c2N2C(c3ccccc3F)OC(C(=O)OCC)(C(=O)OCC)C12 (racemic) | 6.09 | 6.26 |  |
| C=C(C(=O)OCC)N1c2nc(Cl)nc(Cl)c2N2C(c3ccccc3Br)OC(C(=O)OCC)(C(=O)OCC)C12 (racemic) | 5.21 | 5.32 |  |
| CCOC(=O)C1(C(=O)OCC)OC(c2ccccc2)N2c3c(Cl)nc(Cl)nc3N(/C=C/C(=O)OCc3ccccc3)C21 (racemic) | < 4.30 | < 4.30 |  |
| CCOC(=O)/C=C/N1c2nc(Cl)nc(N)c2N2C(c3ccccc3)OC(C(=O)OCC)(C(=O)OCC)C12 (racemic) | < 4.30 | < 4.30 |  |
| CCOC(=O)/C=C/N1c2nc(Cl)nc(Cl)c2N2C(c3ccccc3)OC(C(=O)OCc3ccccc3)(C(=O)OCc3ccccc3)C12 (racemic) | < 4.30 | < 4.30 |  |
| CCOC(=O)/C=C/N1c2ncncc2N2C(c3ccccc3)OC(C(=O)OCC)(C(=O)OCC)C12 (racemic) | < 4.30 | < 4.30 |  |
| CCOC(=O)/C=C/N1c2nc(Cl)nc(Cl)c2N2C(c3ccccc3F)OC(C(=O)OCC)(C(=O)OCC)C12 (racemic) | 5.66 | 5.67 |  |
| CCOC(=O)/C=C/N1c2nc(Cl)nc(Cl)c2N2C(c3ccccc3)OC(C(=O)OCC)(C(=O)OCC)C12 (racemic) | 4.86 | 4.91 |  |
| CCOC(=O)/C=C/N1c2nc(Cl)nc(Cl)c2N2C(c3ccc([N+](=O)[O-])cc3)OC(C(=O)OCC)(C(=O)OCC)C12 (racemic) | 5.31 | 5.01 |  |
| CCOC(=O)/C=C/N1c2nc(F)nc(Cl)c2N2C(c3ccccc3)OC(C(=O)OCC)(C(=O)OCC)C12 (racemic) | 4.73 | 4.74 |  |
| CCCSc1ncnc2c1N1C(c3ccccc3)OC(C(=O)OCC)(C(=O)OCC)C1N2/C=C/C(=O)OCC (racemic) | < 4.30 | < 4.30 |  |
| C=C(C(=O)OCC)N1c2nc(Cl)nc(Cl)c2N2C(c3ccccc3Cl)OC(C(=O)OCC)(C(=O)OCC)C12 (racemic) | 5.61 | 5.55 |  |

| Compound | pIC50 (HCT-116) | pIC50 (HeLa) | also measured |
| --- | --- | --- | --- |
| CCOC(=O)/C=C/N1c2nc(Cl)nc(Cl)c2N2C(c3ccccc3Cl)OC(C(=O)OCC)(C(=O)OCC)C12 (racemic) | 5.57 | 5.45 |  |
| CCOC(=O)/C=C/N1c2nc(Cl)nc(Cl)c2N2C(c3ccc(Br)cc3)OC(C(=O)OCC)(C(=O)OCC)C12 (racemic) | 5.03 | 4.86 |  |
| CCOC(=O)/C=C/N1c2nc(Cl)nc(Cl)c2N2C(c3ccc(F)cc3)OC(C(=O)OCC)(C(=O)OCC)C12 (racemic) | 5.16 | 5.15 |  |
| CCOC(=O)/C=C/N1c2nc(Cl)nc(Cl)c2N2C(c3ccc4ccccc4c3)OC(C(=O)OCC)(C(=O)OCC)C12 (racemic) | < 4.30 | < 4.30 |  |
| CCOC(=O)/C=C/N1c2nc(Cl)nc(Cl)c2N2C(c3cccs3)OC(C(=O)OCC)(C(=O)OCC)C12 (racemic) | < 4.30 | < 4.30 |  |
| CCOC(=O)/C=C/N1c2nc(Cl)nc(Cl)c2N2C(c3ccccc3Br)OC(C(=O)OCC)(C(=O)OCC)C12 (racemic) | 5.47 | 5.50 |  |
| CCOC(=O)C1(C(=O)OCC)OC(c2ccccc2)N2c3c(Cl)nc(Cl)nc3N(/C=C/C(=O)OC)C21 (racemic) | 4.85 | 4.95 |  |
| CCOC(=O)/C=C/N1c2nc(Cl)nc(Cl)c2N2C(c3cccc(C)c3)OC(C(=O)OCC)(C(=O)OCC)C12 (racemic) | 4.98 | 4.58 |  |
| CCOC(=O)/C=C/N1c2nc(Cl)nc(Cl)c2N2C(c3ccc(Cl)cc3)OC(C(=O)OCC)(C(=O)OCC)C12 (racemic) | 5.15 | < 4.30 |  |
| CCOC(=O)/C=C/N1c2nc(Cl)nc(Cl)c2N2C(c3ccc(C(F)(F)F)cc3)OC(C(=O)OCC)(C(=O)OCC)C12 (racemic) | 5.15 | < 4.30 |  |
| CCOC(=O)/C=C/N1c2nc(Cl)nc(Cl)c2N2C(c3ccccc3)OC(COS(=O)(=O)c3ccc(C)cc3)(COS(=O)(=O)c3ccc(C)cc3)C12 (racemic) | < 4.30 | < 4.30 |  |
| CCOC(=O)/C=C/N1c2nc(Cl)nc(Cl)c2N2C(c3cccc(F)c3)OC(C(=O)OCC)(C(=O)OCC)C12 (racemic) | 5.29 | 5.17 |  |
| CCOC(=O)/C=C/N1c2nc(Cl)nc(Cl)c2N2C(c3ccc(-c4ccccn4)cc3)OC(C(=O)OCC)(C(=O)OCC)C12 (racemic) | 4.66 | < 4.30 |  |
| CCOC(=O)/C=C/N1c2nc(Cl)nc(Cl)c2N2C(c3ccccc3C)OC(C(=O)OCC)(C(=O)OCC)C12 (racemic) | 5.01 | 4.91 |  |
| CCOC(=O)/C=C/N1c2ncnc(OC)c2N2C(c3ccccc3)OC(C(=O)OCC)(C(=O)OCC)C12 (racemic) | < 4.30 | < 4.30 |  |
| CCOC(=O)/C=C/N1c2nc(Cl)nc(Cl)c2N2C(c3cccc(C(F)(F)F)c3)OC(C(=O)OCC)(C(=O)OCC)C12 (racemic) | 5.45 | 5.00 |  |
| CCOC(=O)/C=C/N1c2nc(Cl)nc(Cl)c2N2C(c3ccccc3)OC(C(=O)OC)(C(=O)OC)C12 (racemic) | 5.16 | 4.90 |  |
| CCOC(=O)/C=C/N1c2nc(Cl)nc(Cl)c2N2C(c3ccccc3C(F)(F)F)OC(C(=O)OCC)(C(=O)OCC)C12 (racemic) | 5.48 | 5.31 |  |
| CCOC(=O)/C=C/N1c2nc(Cl)nc(Cl)c2N2C(c3cccc(Cl)c3)OC(C(=O)OCC)(C(=O)OCC)C12 (racemic) | 5.13 | 4.78 |  |
| CCOC(=O)/C=C/N1c2nc(Cl)nc(OC)c2N2C(c3ccccc3)OC(C(=O)OCC)(C(=O)OCC)C12 (racemic) | < 4.30 | < 4.30 |  |
| C=C(C(=O)OCC)N1c2nc(Cl)nc(Cl)c2N2C(c3ccccc3)OC(C(=O)OCC)(C(=O)OCC)C12 (racemic) | 5.60 | 5.76 |  |
| C=C(C(=O)OC)N1c2nc(Cl)nc(Cl)c2N2C(c3ccccc3)OC(C(=O)OCC)(C(=O)OCC)C12 (racemic) | 5.66 | 5.63 |  |
| CCOC(=O)/C=C/N1c2ncnc(Cl)c2N2C(c3ccccc3)OC(C(=O)OCC)(C(=O)OCC)C12 (racemic) | 4.47 | < 4.30 |  |
| CCOC(=O)/C=C/N1c2nc(Cl)nc(Cl)c2N2C(c3ccccc3)OC(CO)(CO)C12 (racemic) | 4.95 | 4.81 |  |
| CCOC(=O)/C=C/N1c2nc(Cl)nc(Cl)c2N2C(c3ccccc3)OC(CO)C12 (racemic) | 4.94 | 4.74 |  |
| CCOC(=O)/C=C/N1c2nc(Cl)nc(Cl)c2N2C(c3ccc(C)c(C)c3)OC(C(=O)OCC)(C(=O)OCC)C12 (racemic) | 4.83 | 5.72 |  |
| C/C=C/C[C@@H](C)[C@@H](O)[C@H]1C(=O)N[C@@H](CC)C(=O)N(C)CC(=O)N(C)[C@@H](CC(C)C)C(=O)N[C@@H](C(C)C)C(=O)N(C)[C@@H](CC(C)C)C(=O)N[C@@H](C)C(=O)N[C@H](C)C(=O)N(C)[C@@H](CC(C)C)C(=O)N(C)[C@@H](CC(C)C)C(=O)N(C)[C@@H](C(C)C)C(=O)N1C [CYCLOSPORINE] |  | 5.66 | pIC50 (MCF7): 5.21; pIC50 (PANC-1): 4.88; pIC50 (SW480): 5.29; pIC50 (CT26): 4.94; pIC50 (HepG2): 4.91 |
